23 compounds from ChEMBL document CHEMBL5291721, “A preclinical secondary pharmacology resource illuminates target-adverse drug reaction associations of marketed drugs” (Nat Commun, 2023) can be followed below.

SMILES strings stand for the structures. Some results are limits rather than exact numbers.
Further: assay procedure not described here.

In this experiment the target is Voltage-gated inwardly rectifying potassium channel KCNH2 (Homo sapiens, UniProt Q12809). It is filed as functional. Conditions: read-out: AC50.
Voltage-gated inwardly rectifying potassium channel KCNH2, sequence (Q12809 whole entry): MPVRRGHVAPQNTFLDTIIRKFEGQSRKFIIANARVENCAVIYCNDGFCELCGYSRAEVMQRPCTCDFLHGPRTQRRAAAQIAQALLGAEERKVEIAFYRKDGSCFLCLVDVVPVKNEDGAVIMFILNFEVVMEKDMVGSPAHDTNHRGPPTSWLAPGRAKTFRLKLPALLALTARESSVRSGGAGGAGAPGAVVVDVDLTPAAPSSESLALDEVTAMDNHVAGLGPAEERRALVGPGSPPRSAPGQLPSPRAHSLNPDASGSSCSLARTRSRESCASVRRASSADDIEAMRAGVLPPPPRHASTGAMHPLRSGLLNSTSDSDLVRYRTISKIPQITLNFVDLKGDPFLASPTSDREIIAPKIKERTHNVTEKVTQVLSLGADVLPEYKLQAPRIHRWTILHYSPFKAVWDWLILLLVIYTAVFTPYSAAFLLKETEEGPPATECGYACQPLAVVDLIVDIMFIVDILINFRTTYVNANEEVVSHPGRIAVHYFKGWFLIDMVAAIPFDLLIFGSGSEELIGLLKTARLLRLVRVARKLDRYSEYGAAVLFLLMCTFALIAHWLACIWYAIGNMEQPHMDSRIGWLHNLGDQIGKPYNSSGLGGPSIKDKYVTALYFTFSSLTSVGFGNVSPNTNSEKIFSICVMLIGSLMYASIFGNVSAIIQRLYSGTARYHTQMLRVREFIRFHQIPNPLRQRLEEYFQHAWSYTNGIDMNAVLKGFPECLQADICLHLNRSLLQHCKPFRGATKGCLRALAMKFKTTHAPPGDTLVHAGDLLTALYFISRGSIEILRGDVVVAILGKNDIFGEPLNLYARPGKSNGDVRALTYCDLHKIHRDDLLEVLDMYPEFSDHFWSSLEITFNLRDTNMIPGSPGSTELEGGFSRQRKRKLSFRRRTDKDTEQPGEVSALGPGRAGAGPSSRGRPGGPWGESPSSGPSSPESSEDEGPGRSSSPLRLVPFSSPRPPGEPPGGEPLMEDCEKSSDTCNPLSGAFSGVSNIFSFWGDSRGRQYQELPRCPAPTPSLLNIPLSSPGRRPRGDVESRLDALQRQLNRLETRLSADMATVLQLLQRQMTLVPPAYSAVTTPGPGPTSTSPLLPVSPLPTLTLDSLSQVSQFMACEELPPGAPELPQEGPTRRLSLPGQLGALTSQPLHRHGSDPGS
Take `O=C1c2ccccc2C(=O)C1C(=O)C(c1ccccc1)c1ccccc1` [DIPHENADIONE]: the concentration at half-maximal activity (AC50) is greater than 30 µM.
For `O=C1c2c(O)c(=O)ccn2N([C@@H]2c3ccccc3SCc3c2ccc(F)c3F)[C@@H]2COCCN12` [BALOXAVIR], the concentration at half-maximal activity (AC50) was greater than 30 µM.
For the compound `CCC(=O)c1c(O)cc(O)cc1O` [FLOPROPIONE], the concentration at half-maximal activity (AC50) is greater than 30 µM.
For `O=C1CC[C@@]2(O)[C@H]3Cc4ccc(O)c5c4[C@@]2(CCN3CC2CC2)[C@H]1O5` [NALTREXONE], the AC50 is greater than 30 µM.
In the case of `CC(C)OC(=O)[C@H](C)N[P@](=O)(OC[C@H]1O[C@@H](n2ccc(=O)[nH]c2=O)[C@](C)(F)[C@@H]1O)Oc1ccccc1` [SOFOSBUVIR], the AC50 was greater than 30 µM.
Regarding `CC(N/C(=N\C#N)Nc1ccncc1)C(C)(C)C` (stereo not drawn) [PINACIDIL ANHYDROUS], the half-maximal activity concentration (AC50) is greater than 30 µM.
In the case of `CCOC(=O)c1ccc(O)cc1` [ETHYLPARABEN], the concentration at half-maximal activity (AC50) is greater than 30 µM.
For the compound `CCO/N=C(\C(=O)N[C@@H]1C(=O)N2C(C(=O)[O-])=C(Sc3nc(-c4cc[n+](C)cc4)cs3)CS[C@H]12)c1nsc(N)n1` [CEFTAROLINE], the half-maximal activity concentration (AC50) was found to be 26 µM.
Take `Cc1ccc(O)c2ncccc12` [TILIQUINOL]: the AC50 is greater than 30 µM.
Consider `C#C[C@]1(O)CC[C@H]2[C@@H]3CCC4=CC(=O)CC[C@@H]4[C@H]3CC[C@@]21CC` [LEVONORGESTREL], for which the half-maximal activity concentration (AC50) is greater than 30 µM.
With `CC(=O)Oc1c(C)cc(OCC(O)CNC(C)C)c(C)c1C` (stereo not drawn) [METIPRANOLOL], the AC50 is greater than 30 µM.
As to `Sc1ncnc2nc[nH]c12` [MERCAPTOPURINE ANHYDROUS], the AC50 was greater than 30 µM.
Turning to `CC(O)CO` (stereo not drawn) [PROPYLENE GLYCOL], the concentration at half-maximal activity (AC50) is greater than 30 µM.
Turning to `Cc1cc(O)cc(C)c1Cl` [CHLOROXYLENOL], the AC50 is greater than 30 µM.
For `Cc1c(-c2ccccc2)oc2c(C(=O)OCCN3CCCCC3)cccc2c1=O` [FLAVOXATE], the half-maximal activity concentration (AC50) came to 3.8 µM.
Turning to `C[N+]1(C)[C@@H]2C[C@@H](OC(=O)[C@H](CO)c3ccccc3)C[C@H]1[C@@H]1O[C@@H]12` [METHSCOPOLAMINE], the half-maximal activity concentration (AC50) was greater than 30 µM.
In the case of `CN1CCCC(CN2c3ccccc3Sc3ccccc32)C1` (stereo not drawn) [MEPAZINE], the AC50 stood at 3.77 µM.
The result for `CCOC(=O)N[C@@H]1CC[C@@H]2[C@@H](C1)C[C@H]1C(=O)O[C@H](C)[C@H]1[C@H]2/C=C/c1ccc(-c2cccc(F)c2)cn1` [VORAPAXAR] reads 3.9 µM; that for `CC1(C)O[C@@H]2C[C@H]3[C@@H]4C[C@H](F)C5=CC(=O)CC[C@]5(C)[C@H]4[C@@H](O)C[C@]3(C)[C@]2(C(=O)CO)O1` [FLURANDRENOLIDE], greater than 30 µM; that for `CC(=O)OC[C@H]1O[C@@H](n2ccc(=O)[nH]c2=O)[C@H](OC(C)=O)[C@@H]1OC(C)=O` [URIDINE TRIACETATE], greater than 30 µM.
The result for `O=C1[C@H](CC[C@H](O)c2ccc(F)cc2)[C@@H](c2ccc(O)cc2)N1c1ccc(F)cc1` [EZETIMIBE] reads 16 µM; that for `C[N+](C)(C)CCCCCCCCCC[N+](C)(C)C` [DECAMETHONIUM], greater than 30 µM.
With `O=C(COc1ccc(Cl)cc1)N1CCN(Cc2ccc3c(c2)OCO3)CC1` [FIPEXIDE], the AC50 worked out at 12 µM.
